In US20260285850A1, “SUBSTITUTED OXAZOLIDINONES AND IMIDAZOLINONES AS HERBICIDES” (FMC CORPORATION, priority 2023, published 2026):

Experiments:
Type in all cases: in vivo
[1] = system: ragweed (common ragweed, Ambrosia artemisiifolia); experiment: Test A preemergence soil spray, visual injury rating 0-100; settings: 10 days
In short: (§1)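 Rating: visual, day 10, untreated plants as reference, 0 no effect to 100 full control. Plants were in loam-sand and were treated either preemergence via directed soil spray or postemergence at the one- to two-leaf stage.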

[2] = system: wheat (Triticum aestivum); experiment: as above; settings: 10 days
In short: as §1

[3] = system: soybean (Glycine max); experiment: as above; settings: 10 days
In short: as §1

[4] = system: palmer (palmer amaranth, palmer pigweed, Amaranthus palmeri); experiment: as above; settings: 10 days
In short: as §1

[5] = system: oat, wild (wild oat, Avena fatua); experiment: as above; settings: 10 days
In short: as §1

[6] = system: kochia (Bassia scoparia); experiment: as above; settings: 10 days
In short: as §1

[7] = system: ryegrass, Italian (italian ryegrass, Lolium multiflorum); experiment: as above; settings: 10 days
In short: as §1

[8] = system: barnyardgrass (Echinochloa crus-galli); experiment: as above; settings: 10 days
In short: as §1

[9] = system: corn (Zea mays); experiment: as above; settings: 10 days
In short: as §1

[10] = system: blackgrass (Alopecurus myosuroides); experiment: as above; settings: 10 days
In short: as §1

[11] = system: green foxtail (Setaria viridis); experiment: as above; settings: 10 days
In short: as §1

[12] = system: sedge, umbrella (small-flower umbrella sedge, Cyperus difformis); experiment: Test B flooded paddy test, visual plant response rating 0-100; settings: 250 g ai/ha, Flood, applied to paddy water, evaluated after 13 days
In short: (§2)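 Greenhouse, 13 d. Seedlings at 2-leaf stage, pots flooded to 3 cm, compound delivered into floodwater, water level held constant. Evaluated visually relative to controls.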

[13] = system: rice (Oryza sativa); experiment: as above; settings: 250 g ai/ha, Flood, applied to paddy water, evaluated after 13 days
In short: as §2

[14] = system: barnyardgrass (Echinochloa crusgalli); experiment: as above; settings: 250 g ai/ha, Flood, applied to paddy water, evaluated after 13 days
In short: as §2

[15] = system: ducksalad (Heteranthera limosa); experiment: as above; settings: 250 g ai/ha, Flood, applied to paddy water, evaluated after 13 days
In short: as §2

[16] = system: ragweed (common ragweed, Ambrosia artemisiifolia); experiment: Test A postemergence application, visual injury rating 0-100
In short: as §1

[17] = system: wheat (Triticum aestivum); experiment: as above
In short: as §1

[18] = system: soybean (Glycine max); experiment: as above
In short: as §1

[19] = system: palmer (palmer amaranth, palmer pigweed, Amaranthus palmeri); experiment: as above
In short: as §1

[20] = system: oat, wild (wild oat, Avena fatua); experiment: as above
In short: as §1

[21] = system: kochia (Bassia scoparia); experiment: as above
In short: as §1

[22] = system: ryegrass, Italian (italian ryegrass, Lolium multiflorum); experiment: as above
In short: as §1

[23] = system: barnyardgrass (Echinochloa crus-galli); experiment: as above
In short: as §1

[24] = system: horseweed (Erigeron canadensis); experiment: as above
In short: as §1

[25] = system: corn (Zea mays); experiment: as above
In short: as §1

[26] = system: blackgrass (Alopecurus myosuroides); experiment: as above
In short: as §1

[27] = system: green foxtail (Setaria viridis); experiment: as above
In short: as §1

[28] = 62 g ai/ha, 0 = no effect, 100 = complete control
[29] = 62 g ai/ha, postemergence, 10 days, 0 = no effect, 100 = complete control
[30] = Postemergence, 16 g ai/ha, greenhouse 10 days, 0 no effect, 100 complete control

SMILES: COC(=O)COC(=O)C1=CCC(NC(=O)C2(C)CN(c3cc(F)cc(F)c3)C(=O)O2)C1 (centres unmarked) [Compound 107]
- Ragweed plant response rating ([1]; 16 g ai/ha, 0 to 100 scale): 0
- Ragweed plant response rating (0-100) [1, 28]: 0
- Wheat plant response rating ([2]; 16 g ai/ha, 0 to 100 scale): 0
- Wheat plant response rating (0-100) [2, 28]: 10
- Soybean plant response rating ([3]; 16 g ai/ha, 0 to 100 scale): 0
- Soybean plant response rating (0-100) [3, 28]: 0
- Pigweed, Palmer plant response rating ([4]; 16 g ai/ha, 0 to 100 scale): 0
- Pigweed, Palmer plant response rating (0-100) [4, 28]: 0
- Oat, Wild plant response rating ([5]; 16 g ai/ha, 0 to 100 scale): 0
- Oat, Wild plant response rating (0-100) [5, 28]: 0
- Kochia plant response rating ([6]; 16 g ai/ha, 0 to 100 scale): 0
- Kochia plant response rating (0-100) [6, 28]: 0
- Ryegrass, Italian plant response rating ([7]; 16 g ai/ha, 0 to 100 scale): 10
- Ryegrass, Italian plant response rating (0-100) [7, 28]: 40
- Barnyardgrass plant response rating ([8]; 16 g ai/ha, 0 to 100 scale): 0
- Barnyardgrass plant response rating (0-100) [8, 28]: 10
- Corn plant response rating ([9]; 16 g ai/ha, 0 to 100 scale): 0
- Corn plant response rating (0-100) [9, 28]: 0
- Blackgrass plant response rating ([10]; 16 g ai/ha, 0 to 100 scale): 0
- Blackgrass plant response rating (0-100) [10, 28]: 0
- Foxtail, Green plant response rating ([11]; 16 g ai/ha, 0 to 100 scale): 0
- Foxtail, Green plant response rating (0-100) [11, 28]: 0
- Plant response rating, Sedge, Umbrella (0 to 100 scale, 0 is no effect and 100 is complete control) [12]: 0
- Plant response rating, Rice (0 to 100 scale, 0 is no effect and 100 is complete control) [13]: 0
- Plant response rating, Barnyardgrass (0 to 100 scale, 0 is no effect and 100 is complete control) [14]: 0
- Plant response rating, Ducksalad (0 to 100 scale, 0 is no effect and 100 is complete control) [15]: 0
- Ragweed plant response rating (0-100) [16, 29]: 20
- Ragweed plant response rating (0 to 100 scale) [16, 30]: 0
- Wheat plant response rating (0-100) [17, 29]: 50
- Wheat plant response rating (0 to 100 scale) [17, 30]: 0
- Soybean plant response rating (0-100) [18, 29]: 40
- Soybean plant response rating (0 to 100 scale) [18, 30]: 0
- Pigweed, Palmer plant response rating (0-100) [19, 29]: 30
- Pigweed, Palmer plant response rating (0 to 100 scale) [19, 30]: 0
- Oat, Wild plant response rating (0-100) [20, 29]: 20
- Oat, Wild plant response rating (0 to 100 scale) [20, 30]: 0
- Kochia plant response rating (0-100) [21, 29]: 10
- Kochia plant response rating (0 to 100 scale) [21, 30]: 0
- Ryegrass, Italian plant response rating (0-100) [22, 29]: 60
- Ryegrass, Italian plant response rating (0 to 100 scale) [22, 30]: 0
- Barnyardgrass plant response rating (0-100) [23, 29]: 80
- Barnyardgrass plant response rating (0 to 100 scale) [23, 30]: 0
- Horseweed plant response rating (0-100) [24, 29]: 30
- Horseweed plant response rating (0 to 100 scale) [24, 30]: 0
- Corn plant response rating (0-100) [25, 29]: 100
- Corn plant response rating (0 to 100 scale) [25, 30]: 0
- Blackgrass plant response rating (0-100) [26, 29]: 60
- Blackgrass plant response rating (0 to 100 scale) [26, 30]: 0
- Foxtail, Green plant response rating (0-100) [27, 29]: 20
- Foxtail, Green plant response rating (0 to 100 scale) [27, 30]: 0
